Data reported in patent EP3282019A1, “[…] TREATMENT OF CANCER, IN […] L[…]” (priority 2016, dated 2018).

How the values were obtained:
[1] = system: NOTCH2 (N2^IC / Mastermind / CSL) transcription factor complex; assay: EMSA of DNA-bound NOTCH2 complexes in nuclear extracts of CLL cells; assay type: cell-based, human
Protocol: Preparation of nuclear extracts and EMSA: 3x10^7 cells were lysed in 1ml hypotonic buffer (10mM HEPES, pH 7.9; 1.5mM MgCl2; 10mM KCL) containing 0.15% NP-40 at 4°C for 10 min. The nuclear proteins were extracted from the nuclear fraction by resuspending the nuclei in 100µl extraction buffer (300mM KCl; 1.5mM MgCl2; 20mM HEPES pH 7.9; 0.2mM EDTA; 25% Glycerin) at 4°C for 20 min with constant agitation. The CSL site spanning EMSA probe was derived from the CD23a promoter (5'-[…]-3' (SEQ ID NO: 40) annealed with the reverse complementary strand). The N1^IC (bTAN 20) and N2^IC (C651.6DbHN) antibodies was obtained from the Developmental Studies Hybridoma Bank (University of Iowa, Department of Biological Science, Iowa City, IA). EMSA was performed essentially as described (Hubmann et al., 2010)

[2] = system: NOTCH and apoptosis related genes; assay: semiquantitative RT-PCR of NOTCH and apoptosis related genes in CLL cells; assay type: cell-based, human; settings: for NOTCH3 expression / NR4A1 expression: Fig 3A, right panel
Source text: PCR, RT-PCR, and Western blot analysis: Total RNA was extracted using the Trizol isolation system (Invitrogen/Life Technologies, Paisley, UK). Genomic DNA (gDNA) was extracted using the Wizard Genomic DNA extraction kit from Promega. M-MLV reverse transcriptase and GoTaq PCR kits (Promega, WI, USA) were used for semiquantitative reverse transcriptase polymerase chain reactions (RT-PCR).
PCR and RT-PCR techniques (long range PCR using genomic DNA, semiquantitative RT-PCR), and western blotting (Modular Mini-Protean II system from Bio Rad) were used routinely according to standard protocols.

CLL cells [3] = assay: ex vivo CLL microenvironment model (co-culture with primary human bone marrow stromal cells)
CLL cells [4] = assay: FACS detection of apoptosis (AnnexinV / propidium iodide) in CLL cells, PMA activation model; assay type: cell-based, human
Protocol: Cell lines and culture: CLL cells were cultured in RPMI 1640 medium containing 10% fetal calf serum, 100U/ml penicillin and […] streptomycin at 37 °C, 7.5% CO2 in humidified atmosphere. The ex vivo CLL microenvironment model based on using primary human bone marrow stromal cells in co-culture with CLL cells was applied as previously described and was used for analysing the effect of gliotoxin, RO4929097, and blocking antibodies on CLL cells in a milieu resembling the situation in vivo (Shehata et al., 2004). The PMA activation model was used to analyse the function of PKC stimulation on the regulation of NOTCH2/NOTCH3 signalling in CLL cells.
Flow cytometry (FACS) and detection of cell viability: Antibodies (CD5, CD19, CD20, CD23, CD49d, CD37, CD52, and 7-Aminoactinomycin D (7-AAD) were purchased from Becton Dickinson (San Jose, CA). Species- and isotype-matched irrelevant antibodies are used as controls. Flow cytometry was performed on a FACScan® using CellQuest Pro software version 5.2.1 (Becton Dickinson, San Jose, CA). Ultra high speed cell sorting was used to isolate CD5+/CD19+ CLL cells from normal B-cells (CD19+/CD5-) and T-cells (CD3+). AnnexinV, propidium iodide, and 7-AAD staining was performed to estimate the percentages of cells undergoing apoptosis. The overall effect on cell viability was calculated as the sum of early apoptotic (AnnexinV single positive; Ax+/PI-) and late apoptotic/necrotic (AnnexinV/propidium iodide double positive; Ax+/PI+) cells using a kit from Bender Med. Systems Inc. (Vienna, AT). Cell viability was evaluated by a nonisotopic MTT (3-(4,5-dimethylthiazolyl-2)-2,5-diphenyltetrazolium bromide) assay (Ez4U) in 96-well culture plates as described by the manufacturer (Biomedica, AT).

[5] = RO4929097 0.5µM, PMA-activated CLL cells expressing a GSI resistant form of nuclear NOTCH2
[6] = chronic stimulation with PMA, after 3 days, CLL cells

For `C[C@H](NC(=O)Cc1cc(F)cc(F)c1)C(=O)N[C@H](C(=O)OC(C)(C)C)c1ccccc1` [DAPT], which “nuclear NOTCH2 activity” value ([1]; 5µM DAPT, majority of CLL cases, Fig. 1A and B) is on record?
The value was “no effect”.

And the “sensitivity of DNA-bound NOTCH2 complexes to GSI” value ([1]; majority of CLL cases, Fig. 2B)?
Its value is “less sensitive/resistant”.

What does the source list for `CN1C(=O)[C@]23CC4=CC=C[C@H](O)[C@H]4N2C(=O)[C@@]1(CO)SS3` [gliotoxin]?
NOTCH2 signalling [2]: rapidly inhibited; NOTCH3 mRNA expression [2]: upregulated; NR4A1 mRNA expression [2]: upregulated; co-expression of NOTCH3 and its ligand JAG2 (unstimulated cells) or DLL1 (PMA activated cells) [2]: induced co-expression; anti-apoptotic effect of bone marrow stromal cells (CLL cells [3]): could also overcome the anti-apoptotic effect; apoptosis in CLL cells (CLL cells [4]): efficiently induced apoptosis; protective effect of PMA on CLL cells (CLL cells [4]): reversed the protective effect of PMA; NOTCH2 at the transcription factor level [1]: inhibits NOTCH2 at the transcription factor level; NOTCH2 transactivation [1]: potent NOTCH2 transactivation inhibitor; assembly of the ternary NOTCH2 (N2^IC / Mastermind / CSL) transcription factor complex on DNA [1]: interferes with the assembly

`CC(C)(C(=O)NCC(F)(F)C(F)(F)F)C(=O)N[C@@H]1C(=O)Nc2ccccc2-c2ccccc21` [RO4929097] was tested. Which NOTCH3 expression [2, 5] did it give?
The NOTCH3 expression was “inhibits”.

And the NR4A1 expression [2, 5]?
The NR4A1 expression was “inhibits”.

What about the gliotoxin mediated apoptosis (CLL cells [4]; RO4929097 0.5µM with gliotoxin 0.2µM, PMA-activated CLL cells expressing a GSI resistant form of nuclear NOTCH2, Fig 3B) of the same compound?
Its gliotoxin mediated apoptosis is “counteracts”.

What about the spontaneous apoptosis (CLL cells [4]; RO4929097 0.5µM, PMA-activated CLL cells expressing a GSI resistant form of nuclear NOTCH2, Fig 3B) of the same compound?
Its spontaneous apoptosis is “counteracts”.

With `CCCCCCCCCCCCCC(=O)O[C@@H]1[C@@H](C)[C@@]2(O)[C@@H](C=C(CO)C[C@]3(O)C(=O)C(C)=C[C@@H]23)[C@@H]2C(C)(C)[C@]12OC(C)=O` [PMA] as the compound, how does the “expression of all NOTCH ligands” value ([2]; PMA-activated CLL cells, Fig 2C, lane 4) read?
The value was “downregulation”.

And the NOTCH3 expression [2, 6]?
The NOTCH3 expression was “upregulation”.

And the NR4A1 expression [2, 6]?
Its NR4A1 expression is “upregulation”.
